This note sets out measurements from patent US20230062119A1, “USE OF BIOMARKERS IN IDENTIFYING PATIENTS THAT WILL BE RESPONSIVE TO TREATMENT WITH A PRMT5 INHIBITOR” (Merck Sharp & Dohme LLC, priority 2019, published 2023).

For test [1], the system named is symmetric dimethylation of arginine (SDMA) of PRMT5 substrates in MCF-7 cells. Description: PRMT5 Cell Target Engagement (TE) Assay. The class given is cell-based. The following applies: Homo sapiens, MCF7, 72 h, treated for 3 days, nuclear SDMA by high content imaging, top concentration 10000 nM. An excerpt:
The PRMT5 TE assay is a biomarker assay for identifying compounds that inhibit symmetric dimethylation of arginine (SDMA) of PRMT5 substrates. The following substrates have been reported for PRMT5: Histone H2A and H4 R3, Histone H3 R2, Histone H3 R8, spliceosome Sm proteins, ribosomal protein RPS10, p53, FEN1, nucleoplasmin, nucleolin, EGFR and EBNA. The assay will focus on detecting symmetrically dimethylated nuclear proteins using high content imaging technology. Detection of the expression of symmetrically dimethylated nuclear proteins is through a mixture of primary rabbit monoclonal antibodies to SDMA (CST 13222), which in turn recognized by an Alexafluor 488 dye-conjugated anti-rabbit IgG secondary antibody. The IN Cell Analyzer 2200 or Opera-Phenix measures nuclear Alexafluor 488 fluorescent dye intensity that is directly related to the level of expression of symmetrically dimethylated nuclear proteins at the single cell level. Nuclear AF488 dye intensities are compared to the mean value for DMSO treated cells (MIN) to report percent of inhibition for each compound-treated well.
In this assay, the cell potency (EC50) of each compound was determined from a ten point (1:3 serial dilution; top compound concentration of 10000 nM) titration curve using the following outlined procedure. Each well of a BD falcon collagen coated black/clear bottom 384-well plate was seeded with 4000 MCF-7 cells in 30 μl media and allowed to attach for 5 hours. Media is ATCC-formulated Eagle's Minimum Essential Medium, Catalog No. 30-2003. The following components were added to the base medium: 0.01 mg/mL human recombinant insulin; fetal bovine serum to a final concentration of 10%. Additional 30 µl of media containing 2× compounds were added to each well. Cells were treated for 3 days in 37° C. CO2 incubator. On day 3, cells were fixed with Cytofix, permeabilized with 0.4% Triton-X-100/Cytofix, and washed with D-PBS without Ca/Mg. Cells were blocked with Licor Odessey blocking reagent for 1 hour at room temperature, followed by incubation with anti-SDMA (1:1000) antibody at 4° C. overnight. 1° antibody was removed, followed by three washings with DPBS without Ca/Mg and 0.05% Tween20. Hoechst (5 μg/mL), Cell Mask deep stain (1:2000) and Alexa488-conjugated goat anti-rabbit IgG (2 μg/mL) was added for 1 hour at room temperature. A final washing step (three washes) was performed before sealing plate for imaging on In Cell Analyzer 2200 or Opera-Phenix. Images from analyzer were uploaded to Columbus for image analysis. IC50 values were determined by 4 parameters robust fit of percent fluorescence units vs. (Log 10) compound concentrations.

Test [2] addresses T1, Full-length (FL)-PRMT5-MEP50 enzyme complex (Homo sapiens, UniProt O14744).
T1 construct: Full-length (FL)-PRMT5-MEP50 enzyme complex (recombinant proteins from baculovirus-transfected Sf21 cells: FL-PRMT5; MW=73837 kDa and FL-MEP50; MW=38614); made in house; host or cells: baculovirus-transfected Sf21 insect cells
Description: PRMT5-MEP50 Enzyme Methylation Assay. The class given is biochemical. The following applies: 1.0 nM PRMT5-MEP50, 75 nM biotinylated peptide, 15 μM SAM. An outline of the steps: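 Compound was pre-incubated 60 min at 37°C with 1.0 nM enzyme and 15 μM SAM (final) in 50 mM Bicine pH 8.0, then 75 nM biotinylated H4R3(Me1) peptide was added and reacted 150 min; twenty-point 1:2 titration from 100000 nM, 1% DMSO. Formic acid quench; SAMDI mass spectrometry measured Me1-to-Me2 conversion, EC50 by 4- or 7-parameter regression.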

[3] abbreviates: one EC50: 4 parameters single site sigmoidal model, EC50 1: first value of 7 parameters biphasic model, read-out: Enzyme Methylation Assay (EC50 or EC50 1).
The mark [4] stands for this setting: second EC50 of 7 parameters biphasic model, read-out: Enzyme Methylation Assay (EC50 2).

Where a name gives a salt, the structure may show the parent alone. Read-outs that look alike come from different tables or passages of the source.

T1 sequence (O14744 whole entry): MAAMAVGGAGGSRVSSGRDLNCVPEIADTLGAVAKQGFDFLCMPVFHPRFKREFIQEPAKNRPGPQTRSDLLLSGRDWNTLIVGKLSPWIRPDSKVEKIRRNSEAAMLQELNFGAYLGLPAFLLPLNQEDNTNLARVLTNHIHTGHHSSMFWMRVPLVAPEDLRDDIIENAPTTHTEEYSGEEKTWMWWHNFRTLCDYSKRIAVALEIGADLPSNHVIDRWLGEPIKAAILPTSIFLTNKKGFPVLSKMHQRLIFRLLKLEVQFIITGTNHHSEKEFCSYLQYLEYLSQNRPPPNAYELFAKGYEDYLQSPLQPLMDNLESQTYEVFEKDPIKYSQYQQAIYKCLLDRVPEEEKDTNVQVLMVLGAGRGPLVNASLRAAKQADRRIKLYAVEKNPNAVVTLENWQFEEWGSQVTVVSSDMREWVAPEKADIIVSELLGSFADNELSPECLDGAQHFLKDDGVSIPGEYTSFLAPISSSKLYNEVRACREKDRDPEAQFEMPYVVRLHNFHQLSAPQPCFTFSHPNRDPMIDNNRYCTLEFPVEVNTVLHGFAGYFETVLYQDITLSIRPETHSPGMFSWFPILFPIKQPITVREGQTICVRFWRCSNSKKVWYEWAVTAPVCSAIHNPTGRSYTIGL
T1 sequence (Q9BQA1 whole entry partner): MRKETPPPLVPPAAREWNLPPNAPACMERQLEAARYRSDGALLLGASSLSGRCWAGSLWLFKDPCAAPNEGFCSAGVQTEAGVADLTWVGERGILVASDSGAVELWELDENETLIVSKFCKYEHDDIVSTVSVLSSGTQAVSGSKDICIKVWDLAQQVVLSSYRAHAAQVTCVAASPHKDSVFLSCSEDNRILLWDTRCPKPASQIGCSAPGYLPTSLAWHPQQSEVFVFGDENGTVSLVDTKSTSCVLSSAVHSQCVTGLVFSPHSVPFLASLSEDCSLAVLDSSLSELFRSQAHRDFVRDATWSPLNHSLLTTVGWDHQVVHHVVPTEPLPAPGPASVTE

A word on the EC50: it is the concentration needed to bring the measured effect to its halfway point. As for `Nc1nc2cc(C[C@@H]3CC[C@@]4(O)[C@@H]3O[C@@H](n3cc(C5CC5)c5c(N)ncnc53)[C@@H]4O)ccc2cc1F` [Example 50, (2R,3R,3aS,6S,6aR)-2-(4-amino-5-cyclopropyl-7H-pyrrolo[2,3-d]pyrimidin-7-yl)-6-[(2-amino-3-fluoroquinolin-7-yl)methyl]hexahydro-3aH-cyclopenta[b]furan-3,3a-diol], the EC50 came out at 0.7 nM in test [1] and 0.3 nM in test [2] (setting [3]).

For the compound `Cc1cn([C@@H]2O[C@@H]3[C@@H](Oc4ccc5cc(Cl)c(N)nc5c4)CC[C@]3(O)[C@H]2O)c2ncnc(N)c12` [Example 64, (2R,3R,3aS,6S,6aR)-6-((2-amino-3-chloroquinolin-7-yl)oxy)-2-(4-amino-5-methyl-7H-pyrrolo[2,3-d]pyrimidin-7-yl)hexahydro-3aH-cyclopenta[b]furan-3,3a-diol 2,2,2-trifluoroacetate], the EC50 in test [1] is 16.2 nM; in test [2] (setting [3]), 0.3 nM.

In the case of `Cc1cn([C@@H]2O[C@@H]3[C@@H](Oc4ccc5cc(F)c(N)nc5c4)CC[C@]3(O)[C@H]2O)c2ncnc(N)c12` [Example 65, (2R,3R,3aS,6S,6aR)-6-((2-amino-3-fluoroquinolin-7-yl)oxy)-2-(4-amino-5-methyl-7H-pyrrolo[2,3-d]pyrimidin-7-yl)hexahydro-3aH-cyclopenta[b]furan-3,3a-diol 2,2,2-trifluoroacetate], the 50% effective concentration (EC50) was determined as 179 nM in test [1], 0.2 nM in test [2] (setting [3]) and 200 nM in test [2] (setting [4]).

As for `CCc1cn([C@@H]2O[C@@H]3[C@@H](Oc4ccc5cc(Br)c(N)nc5c4)CC[C@]3(O)[C@H]2O)c2ncnc(N)c12` [Example 69, (2R,3R,3aS,6S,6aR)-6-((2-amino-3-bromoquinolin-7-yl)oxy)-2-(4-amino-5-ethyl-7H-pyrrolo[2,3-d]pyrimidin-7-yl)hexahydro-3aH-cyclopenta[b]furan-3,3a-diol], the 50% effective concentration (EC50) in test [1] is 103 nM; in test [2] (setting [3]), 1.1 nM.

As for `Nc1nc2cc(O[C@H]3CC[C@@]4(O)[C@@H]3O[C@@H](n3ccc5c(C(F)F)ncnc53)[C@@H]4O)ccc2cc1Br` [Example 79, (2R,3R,3aS,6S,6aR)-6-((2-amino-3-bromoquinolin-7-yl)oxy)-2-(4-(difluoromethyl)-7H-pyrrolo[2,3-d]pyrimidin-7-yl)hexahydro-3aH-cyclopenta[b]furan-3,3a-diol], the EC50 in test [1] came to 52.5 nM; in test [2] (setting [3]) it was 2.9 nM.

As to `CCc1ncnc2c1ccn2[C@@H]1O[C@@H]2[C@@H](Oc3ccc4cc(Br)c(N)nc4c3)CC[C@]2(O)[C@H]1O` [Example 82, 2,2,2-trifluoroacetate], the EC50 was 87.2 nM in test [1], 0.7 nM in test [2] (setting [3]) and 75.9 nM in test [2] (setting [4]).

`Nc1nc2cc(CC[C@]3(CF)C[C@@H](n4ccc5c(N)ncnc54)[C@H](O)[C@@H]3O)ccc2cc1Br` [Example 102, (1S,2R,5R)-3-(2-(2-amino-3-bromoquinolin-7-yl)ethyl)-5-(4-amino-7H-pyrrolo[2,3-d]pyrimidin-7-yl)-3-(fluoromethyl)cyclopentane-1,2-diol]: the figures for the EC50 in test [1] and in test [2] (setting [3]) were 2 nM and 0.3 nM, respectively.

For `Nc1ncc2ccn([C@@H]3O[C@@H]4[C@@H](Oc5ccc6cc(Br)c(N)nc6c5)CC[C@]4(O)[C@H]3O)c2n1` [compound 46, (2R,3R,3aS,6S,6aR)-6-((2-amino-3-bromoquinolin-7-yl)oxy)-2-(2-amino-7H-pyrrolo[2,3-d]pyrimidin-7-yl)hexahydro-3aH-cyclopenta[b]furan-3,3a-diol dihydrochloride], the 50% effective concentration (EC50) turned out to be 16.8 nM in test [1] and 0.5 nM in test [2] (setting [3]).
